Assay results published in patent US20110183963A1 (priority 2009, published 2011).

Tests used:
[1] = biological target: human NET (Homo sapiens, UniProt P23975); conditions: relative to quetiapine; cited from earlier work
[2] = biological target: T1, 5-HT1A receptor (Homo sapiens, UniProt P08908); conditions: relative to quetiapine; cited from earlier work
T1 sequence (P08908 1-422): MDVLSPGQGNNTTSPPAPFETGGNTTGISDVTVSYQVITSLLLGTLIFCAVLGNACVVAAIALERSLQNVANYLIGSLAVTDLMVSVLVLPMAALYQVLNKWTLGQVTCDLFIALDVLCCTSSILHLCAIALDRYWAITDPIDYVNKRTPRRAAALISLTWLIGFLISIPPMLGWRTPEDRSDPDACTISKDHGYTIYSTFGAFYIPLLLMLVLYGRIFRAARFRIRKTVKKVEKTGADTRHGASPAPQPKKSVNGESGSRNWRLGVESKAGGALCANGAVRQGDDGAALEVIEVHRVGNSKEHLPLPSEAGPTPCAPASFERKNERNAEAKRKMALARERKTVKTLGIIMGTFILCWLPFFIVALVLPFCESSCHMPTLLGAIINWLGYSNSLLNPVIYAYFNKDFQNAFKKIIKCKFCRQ

[3] = cited from earlier work
[4] = system: leptin; conditions: chronic oral administration for a period of 6 weeks; cited from earlier work
[5] = to be dosed efficiently via oral gavage in rats

Sequence of human NET (P23975 whole entry): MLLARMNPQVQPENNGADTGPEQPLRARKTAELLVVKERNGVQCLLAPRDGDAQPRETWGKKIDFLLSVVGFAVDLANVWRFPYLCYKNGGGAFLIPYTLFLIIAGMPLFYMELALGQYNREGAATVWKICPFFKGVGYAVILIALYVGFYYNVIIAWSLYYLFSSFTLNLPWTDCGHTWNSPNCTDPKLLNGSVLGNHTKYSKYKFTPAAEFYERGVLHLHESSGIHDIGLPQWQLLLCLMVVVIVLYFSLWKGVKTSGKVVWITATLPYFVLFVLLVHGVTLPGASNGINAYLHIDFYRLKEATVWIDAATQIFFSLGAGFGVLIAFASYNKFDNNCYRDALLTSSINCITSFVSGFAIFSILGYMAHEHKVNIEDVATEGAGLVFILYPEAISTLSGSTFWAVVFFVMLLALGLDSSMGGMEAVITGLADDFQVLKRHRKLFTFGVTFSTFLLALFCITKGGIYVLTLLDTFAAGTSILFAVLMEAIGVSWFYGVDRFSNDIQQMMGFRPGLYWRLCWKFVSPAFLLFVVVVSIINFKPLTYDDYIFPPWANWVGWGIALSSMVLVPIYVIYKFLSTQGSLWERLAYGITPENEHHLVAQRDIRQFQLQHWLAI

SMILES: c1ccc2c(c1)N=C(N1CCNCC1)c1ccccc1S2 [N-desalkyl-quetiapine, 4-(dibenzo[b,f][1,4]thiazepin-11-yl)piperazine]
- higher avidity for inhibiting human NET than quetiapine itself [1]: about 100 fold
- more potent than quetiapine at the 5-HT1A receptor [2]: 10 fold

SMILES: OCCOCCN1CCN(C2=Nc3ccccc3Sc3ccccc32)CC1 [quetiapine, 2-(2-(4-(dibenzo[b,f][1,4]thiazepin-11-yl)piperazin-1-yl)ethoxy)ethanol]
- Absolute bioavailability ([3]; estimated): 9%
- terminal half-life time for the drug's elimination ([3]; in vivo): about 7 hours
- increase in leptin release [4]: about 37%

SMILES: OCCOCCN1CCN(C2=Nc3ccccc3Sc3ccccc32)CC1 [fumarate]
- solubility for oral gavage dosing [5]: not soluble enough
